Assay [1] deals with cartilage pieces of bovine metacarpophalangeal joint. Nature of the assay: Suppressive action to cartilage destruction: release of sGAG induced by IL-1α from cartilage pieces. It counts as cell-based. The conditions noted are these: 25 μmol/L test substance, 2 h pretreatment, human recombinant IL-1α 3 ng/mL, 4 days at 37° C.; for inhibition at 25 µM: Bos taurus, 96 h, read-out: sGAG Releasing Suppressive Rate (%). As for the experimental part:
Evaluation of Suppressive Action to Cartilage Destruction [Release of sGAG Induced by Interleukin-1α (IL-1α)]
(1) Incubation of Cartilage Pieces
Each four cartilage pieces of bovine metacarpophalangeal joint were placed in each well of a 48-well plate and pretreated for 2 hours with a basal medium [D-MEM (Dulbecco's Modified Eagle Medium) containing 2 mmol/L of glutamine, 25 mmol/L of Hepes, 100 μg/mL of streptomycin, 100 IU/mL of penicillin and 5.6 μg/mL of amphotericin B] containing 25 μmol/L of a test substance. Human recombinant IL-1α (3 ng/mL) was added thereto followed by incubating at 37° C. for 4 days in a CO2 incubator set at 5 vol % of CO2. Culture supernatant and cartilage pieces were recovered and stored by freezing until the measurement for each of them.
(2) Measurement of the Amount of sGAG and Calculation of the Suppressive Rate for the Release of sGAG
The recovered cartilage pieces were treated with a papain solution [containing 1 mg/mL of papain, 100 mmol/L of sodium phosphate (pH 6.5), 5 mmol/L of L-cysteine and 5 mmol/L of disodium ethylenediaminetetraacetate (EDTA)] at 65° C. for about 16 hours to solubilize. Amount of sGAG in the resulting extract was measured using an sGAG Alcian Blue Binding Kit (Wieslab AB) which is a quantitative kit to which a Alcian blue staining protocol is applied. sGAG in the culture supernatant after the incubation was measured without subjecting to a papain treatment. Each releasing rate of sGAG was determined by the following formula to calculate the suppressive rate for the release of sGAG. Releasing rate (%) of sGAG={(Total sGAG amount in the culture supernatant)/[(Total sGAG amount in the culture supernatant)+(Total sGAG amount in the cartilage pieces)]}×100 Suppressive rate (%) for release of sGAG={[Releasing rate of sGAG (IL-1α stimulation)−Releasing rate of sGAG (Test substance)]/[Releasing rate of sGAG (IL-1α stimulation)−Releasing rate of sGAG (Non-stimulation)]}×100

In a further assay the test system is HFLS-OA cells. Nature of the assay: Suppressive action to TNF-α-induced proliferation of synovial cells (HFLS-OA), BrdU ELISA. It counts as cell-based. To be noted: 200 μmol/L test substance, human recombinant TNF-α 10 ng/mL, 5 days, BrdU incorporation increase by TNF-α = 100%; for activity at 200 µM: Synovial cell, 120 h, read-out: Synovial Cell Proliferation Rate (%). The procedure: Evaluation of Suppressive Action to Cell Proliferation of Synovial Cells (HFLS-OA) Derived from Tissues of Human Osteoarthritis
(1) Incubation of HFLS-OA Cells
HFLS-OA cells were sown onto a 96-well plate so as to make them 10^4 cells/well/100 μL in a D-MEM containing 2 vol % of fetal bovine serum (FBS) and incubated for 24 hours. A test substance (200 μmol/L) and human recombinant TNF-α (10 ng/mL) were added thereto followed by incubating for 5 days.
(2) Measurement of Action to HFLS-OA Cell Proliferation
A kit [Cell Proliferation ELISA, BrdU (colorimetric) (Roche Diagnostics)] was used and measurement was conducted according to the protocol attached to the kit. HFLS-OA cells were incubated for 3 days and 10 μL of 5-bromo-2′-deoxyuridine (BrdU) dissolved in a phosphate buffered saline (PBS) (100 μmol/L, pH 7.4) was added to each well followed by incubating for 48 hours more. After the culture supernatant was removed from each well, 200 μL/well of an immobilization/denaturation solution was added thereto and the mixture was allowed to stand for 30 minutes whereby immobilization of the cells and denaturation of DNA were conducted. After the immobilization/denaturation solution was completely removed, 100 μL of a peroxidase-labeled anti-BrdU antibody solution was added thereto and the mixture was made to react at room temperature for 90 minutes. After washing with PBS, 100 μL of a substrate liquid (tetramethylbenzidine) was added to each well and the absorbance was measured. A cell proliferation rate upon addition of each test substance was calculated where an increase in incorporation of BrdU upon addition of TNF-α was defined as 100% of cell proliferation rate.

For the compound `O=c1oc2c(OS(=O)(=O)c3cccc(Br)c3)cccc2cc1NS(=O)(=O)c1ccccc1` [Compound 34, 3-(Benzenesulfonamide)-2-oxochromen-8-yl 3-bromobenzenesulfonate], the “sGAG Releasing Suppressive Rate (%)” value in assay [1] is 109%. In addition, the “Synovial Cell Proliferation Rate (%)” value in the assay with HFLS-OA cells was −31.6%.
Consider `O=c1oc2c(OS(=O)(=O)c3cccc(C(F)(F)F)c3)cccc2cc1NS(=O)(=O)c1cccc(Br)c1` [Compound 56, 3-[(3-Bromophenyl)sulfonylamino]-2-oxochromen-8-yl 3-(trifluoromethyl)benzenesulfonate], for which the inhibition at 25 µM in assay [1] worked out at 133%. Further, in the assay with HFLS-OA cells, the activity at 200 µM is -44.4%.
Taken in the same sequence, the figures for `CCOC(=O)c1ccc(S(=O)(=O)Oc2cccc3cc(NS(=O)(=O)c4cccc([N+](=O)[O-])c4)c(=O)oc23)cc1` [Compound 48, Ethyl 4-[3-[(3-nitrophenyl)sulfonylamino]-2-oxochromen-8-yl]oxysulfonylbenzoate] were 122% and -34.9%.
Taken in the same sequence, the figures for `O=c1oc2c(OS(=O)(=O)c3cccc(Br)c3)cccc2cc1NS(=O)(=O)c1cccc([N+](=O)[O-])c1` [Compound 59, 3-[(3-Nitrophenyl)sulfonylamino]-2-oxochromen-8-yl 3-bromobenzenesulfonate] were 123% and -32.8%.
Regarding `O=c1oc2c(OS(=O)(=O)c3cccnc3)cccc2cc1NS(=O)(=O)c1cccc(Br)c1` [Compound 36], in assay [1], the “sGAG Releasing Suppressive Rate (%)” value is reported as 30%. For the same compound, the “Synovial Cell Proliferation Rate (%)” value in the assay with HFLS-OA cells is −33.9%.
Regarding `N#Cc1cccc(S(=O)(=O)Nc2cc3cccc(OS(=O)(=O)c4cccc(C#N)c4)c3oc2=O)c1` [Compound 14, 3-[(3-Cyanophenyl)sulfonylamino]-2-oxochromen-8-yl 3-cyanobenzenesulfonate], in assay [1], the inhibition at 25 µM was 66%. The activity at 200 µM with HFLS-OA cells is -60.3%.
On to `O=c1oc2c(OS(=O)(=O)c3ccc(C(F)(F)F)cc3)cccc2cc1NS(=O)(=O)c1cccc(C(F)(F)F)c1` [Compound 57, 2-Oxo-3-[[3-(trifluoromethyl)phenyl]sulfonylamino]-chromen-8-yl 4-(trifluoromethyl)benzenesulfonate], for which the inhibition at 25 µM in assay [1] was found to be 140%. In addition, the activity at 200 µM with HFLS-OA cells is -50%.
Taken in the same sequence, the figures for `O=c1oc2c(OS(=O)(=O)c3cccc(C(F)(F)F)c3)cccc2cc1NS(=O)(=O)c1ccc([N+](=O)[O-])cc1` [Compound 42, 3-[(4-Nitrophenyl)sulfonylamino]-2-oxochromen-8-yl 3-(trifluoromethyl)benzenesulfonate] were 163% and -35.5%.
For the compound `CS(=O)(=O)Oc1cccc2cc(NS(=O)(=O)c3cccc(Br)c3)c(=O)oc12` [Compound 37, 3-[(3-Bromophenyl)sulfonylamino)]-2-oxochromen-8-yl methanesulfonate], the “sGAG Releasing Suppressive Rate (%)” value in assay [1] was 17%. In addition, the “Synovial Cell Proliferation Rate (%)” value in the assay with HFLS-OA cells is −22.6%.
Consider `O=c1oc2c(OS(=O)(=O)c3ccc(-c4ccccc4)cc3)cccc2cc1NS(=O)(=O)c1ccc(-c2ccccc2)cc1` [Compound 66, 2-Oxo-3-[(4-phenylphenyl]sulfonylamino]chromen-8-yl 4-phenylbenzenesulfonate], for which, in assay [1], the inhibition at 25 µM turned out to be 38%. Besides, in the assay with HFLS-OA cells, the activity at 200 µM is -37.9%.
Regarding `O=c1oc2c(OS(=O)(=O)c3ccc([N+](=O)[O-])cc3)cccc2cc1NS(=O)(=O)c1ccc([N+](=O)[O-])cc1` [Compound 16, 3-[(4-Nitrophenyl)sulfonylamino]-2-oxochromen-8-yl 4-nitrobenzenesulfonate], the inhibition at 25 µM in assay [1] worked out at 112%. Also, the activity at 200 µM with HFLS-OA cells was -19.9%.
Taken in the same sequence, the figures for `O=c1oc2c(OS(=O)(=O)c3ccc(-c4ccccc4)cc3)cccc2cc1NS(=O)(=O)c1cccc(Br)c1` [Compound 65, 3-[(3-Bromophenyl)sulfonylamino]-2-oxochromen-8-yl 4-phenylbenzenesulfonate] were 115% and -45.9%.
For `O=c1oc2c(OS(=O)(=O)c3cccc(Br)c3)cccc2cc1NS(=O)(=O)c1cccc(C(F)(F)F)c1` [Compound 60, 2-Oxo-3-[[3-(trifluoromethyl)phenyl]sulfonylamino]-chromen-8-yl 3-bromobenzenesulfonate], the inhibition at 25 µM in assay [1] is 138%. The activity at 200 µM with HFLS-OA cells is -44.4%.
For the compound `O=C(O)c1ccc(S(=O)(=O)Oc2cccc3cc(NS(=O)(=O)c4cccc([N+](=O)[O-])c4)c(=O)oc23)cc1` [Compound 49, 4-[3-[(3-Nitrophenyl)sulfonylamino]-2-oxochromen-8-yl]oxysulfonylbenzoic acid], in assay [1], the inhibition at 25 µM was determined as 38%. The activity at 200 µM with HFLS-OA cells was -36.1%.
For the compound `O=c1oc2c(OS(=O)(=O)c3ccccc3)cccc2cc1NS(=O)(=O)c1ccc([N+](=O)[O-])cc1` [Compound 23, 3-[(4-Nitrophenyl)sulfonylamino]-2-oxochromen-8-yl benzenesulfonate], in assay [1], the inhibition at 25 µM is 103%. Also, the activity at 200 µM in the assay on HFLS-OA cells was -39%.
Consider `O=c1oc2c(OS(=O)(=O)c3ccccc3)cccc2cc1NS(=O)(=O)c1ccc(Cl)cc1` [Compound 29, 3-[(4-Chlorophenyl)sulfonylamino]-2-oxochromen-8-yl benzenesulfonate], for which the inhibition at 25 µM in assay [1] is 121%. Moreover, the activity at 200 µM in the assay with HFLS-OA cells was -31.3%.
Taken in the same sequence, the figures for `O=c1oc2c(OS(=O)(=O)c3cccc([N+](=O)[O-])c3)cccc2cc1NS(=O)(=O)c1ccc(-c2ccccc2)cc1` [Compound 55, 2-Oxo-3-[(4-phenylphenyl)sulfonylamino]chromen-8-yl 3-nitrobenzenesulfonate] were 117% and -32.2%.
Taken in the same sequence, the figures for `N#Cc1ccc(S(=O)(=O)Nc2cc3cccc(OS(=O)(=O)c4ccccc4)c3oc2=O)cc1` [Compound 21, 3-[(4-Cyanophenyl)sulfonylamino]-2-oxochromen-8-yl benzenesulfonate] were 69% and -41.2%.
Taken in the same sequence, the figures for `O=c1oc2c(OS(=O)(=O)c3ccc(-c4ccccc4)cc3)cccc2cc1NS(=O)(=O)c1cccc([N+](=O)[O-])c1` [Compound 62, 3-[(3-Nitrophenyl)sulfonylamino]-2-oxochromen-8-yl 4-phenylbenzenesulfonate] were 140% and -49.2%.
On to `O=c1oc2c(OS(=O)(=O)c3ccccc3)cccc2cc1NS(=O)(=O)c1cccc(F)c1` [Compound 25, 3-[(3-Fluorophenyl)sulfonylamino]-2-oxochromen-8-yl benzenesulfonate], for which, in assay [1], the inhibition at 25 µM was determined as 77%. For the same compound, the activity at 200 µM in the assay on HFLS-OA cells is -40.9%.
On the same counts, the results for `O=c1oc2c(OS(=O)(=O)c3ccc(C(F)(F)F)cc3)cccc2cc1NS(=O)(=O)c1cccc(Br)c1` [Compound 58, 3-[(3-Bromophenyl)sulfonylamino]-2-oxochromen-8-yl 4-(trifluoromethyl)benzenesulfonate] are 129% and -42.8%.
`O=c1oc2c(OS(=O)(=O)c3cccc(Br)c3)cccc2cc1NS(=O)(=O)c1ccc(C(F)(F)F)cc1` [Compound 61, 2-Oxo-3-[[4-(trifluoromethyl)phenyl]sulfonylamino]-chromen-8-yl 3-bromobenzenesulfonate]: the inhibition at 25 µM in assay [1] was 140%. The activity at 200 µM in the assay with HFLS-OA cells is -40.6%.

The record behind these values is US9365533B2, “Coumarin derivative” (NIPPON ZOKI PHARMACEUTICAL CO., LTD., priority 2012, dated 2016).
